The values that follow come from patent US20250375475A1 (priority 2024, published 2025).

The conditions of data set [1]: natural zinc, blood to brain across the BBB; cited from earlier work.
The test system of data set [2] is GFAP.
Data set [3] has as its system astroglia. The settings on record: FIG. 2.
In data set [4] the test system is microglia/macrophages. The settings on record: FIG. 7; LPS-lesioned rats.
Data set [5] relates to CD206. Briefly: CD206 expression (FIG. 5).
Data set [6] deals with microglia. Nature of the data set: Reactive oxygen species in microglia (FIG. 6).
The test system of data set [7] is circulating leukocytes. Briefly: Absolute number of circulating leukocytes (FIG. 3). The settings on record: rodents.

On to `[Zn]` [zinc], for which the “zinc in the blood taken up by brain tissues” value in data set [1] is listed as 2-3%.

Regarding ^64Zn L-Aspartate, the GFAP in blood entry in data set [2] (FIG. 1A, blood) was “significant reduction”. Moreover, the “GFAP in the brain and periphery” value in data set [2] (FIG. 1B, brain and periphery) is on record as “significant reduction”. Also, the “inflammation as evidenced by astroglia” value in data set [3] is recorded as “lowered the inflammation significantly”. Moreover, the “oxidative stress as indicated by metabolic characteristics of microglia/macrophages” value in data set [4] is “significantly reduced oxidative stress”. For the same compound, the CD206 expression entry in data set [5] is reported as “reduction”. Also, in data set [6], the “reactive oxygen species in microglia” value is given as “reduction”. The “absolute number of circulating leukocytes” value in data set [7] is on record as “normalization”.
